Test results reported in US20250120961A1, “P53 MODULATORS” (Nested Therapeutics, Inc., priority 2023, published 2025).
pEC50: −log10 of the molar value.

The compounds below were run against His-tagged p53-Y220C DNA binding domain (Homo sapiens, UniProt P04637, Y220C) (assay: Biochemical p53-Y220C and DNA binding assay (HTRF)). Conditions: bound printed in the heading for the reference compound; read-out: HTRF IP.
Outline: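 DBD (aa 94-312, 100 nM) mixed with compound and biotinylated consensus dsDNA (200 nM) in DPBS/20 mM NaCl/0.5% BSA, overnight at 4 °C, then 60 min at 27-29 °C; anti-His Tb/streptavidin-d2 HTRF read. Activation normalized to reference compound (500%) and DMSO (0%); 10-point curve, inflection point reported.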

| pEC50 | SMILES |
| --- | --- |
| > 7.00 | CN1CC[C@@H](Nc2cccc3c2cc(-c2noc(CNC(=O)c4cnn(C(C)(C)C)c4)n2)n3CC(F)(F)F)[C@@H](F)C1 [Reference Compound 1, reference compound] |

Same assay, conditions: inflection point of 10 points dose titration, 4 parameter curve fit; p53-Y220C DBD 100 nM, biotinylated dsDNA 200 nM, 27 to 29° C.; read-out: HTRF IP

| SMILES | pEC50 |
| --- | --- |
| OC(COCc1ccccc1)CO/N=C/c1sc2c(N[C@@H]3CNC[C@@H]3F)cccc2c1CC(F)(F)F (stereo partly drawn) [Example 1-34, (E)-7-(((3R,4S)-4-fluoropyrrolidin-3-yl)amino)-3-(2,2,2-trifluoroethyl)benzo[b]thiophene-2-carbaldehyde O-(3-(benzyloxy)-2-hydroxypropyl) oxime] | < 6.00 |
| CN1CC[C@@H](Nc2cccc3c2cc(/C=N\OCc2ccccc2)n3CC(F)(F)F)[C@@H](F)C1 [Example 2-4, (Z)-4-(((3S,4R)-3-fluoro-1-methylpiperidin-4-yl)amino)-1-(2,2,2-trifluoroethyl)-1H-indole-2-carbaldehyde O-benzyl oxime] | < 6.00 |
| OC(/C=C/c1sc2c(N[C@@H]3CNC[C@@H]3F)cccc2c1CC(F)(F)F)c1ccccn1 (stereo partly drawn) [Example 5-1, (E)-3-(7-(((3R,4S)-4-fluoropyrrolidin-3-yl)amino)-3-(2,2,2-trifluoroethyl)benzo[b]thiophen-2-yl)-1-(pyridin-2-yl)prop-2-en-1-ol] | < 6.00 |
| CN1CC[C@@H](Nc2cccc3c2cc(/C=N/OCc2ccccc2)n3CC(F)(F)F)[C@@H](F)C1 [Example 2-3, (E)-4-(((3S,4R)-3-fluoro-1-methylpiperidin-4-yl)amino)-1-(2,2,2-trifluoroethyl)-1H-indole-2-carbaldehyde O-benzyl oxime] | < 6.00 |
| CO/N=C/c1cc2c(N[C@@H]3CCN(C)C[C@@H]3F)cccc2n1CC(F)(F)F [Example 2-2, (E)-4-(((3S,4R)-3-fluoro-1-methylpiperidin-4-yl)amino)-1-(2,2,2-trifluoroethyl)-1H-indole-2-carbaldehyde O-methyl oxime] | < 6.00 |
| COCC(CO)O/N=C/c1sc2c(N[C@@H]3CNC[C@@H]3F)cccc2c1CC(F)(F)F (stereo partly drawn) [Example 1-11, (E)-7-(((3R,4S)-4-fluoropyrrolidin-3-yl)amino)-3-(2,2,2-trifluoroethyl)benzo[b]thiophene-2-carbaldehyde O-(1-hydroxy-3-methoxypropan-2-yl) oxime] | < 6.00 |
| COC(=O)NC/C=C/c1sc2c(N[C@@H]3CCN(C)C[C@@H]3F)cccc2c1CC(F)(F)F [Example 6-4, methyl ((E)-3-(7-(((3S,4R)-3-fluoro-1-methylpiperidin-4 yl)amino)-3-(2,2,2-trifluoroethyl)benzo[b]thiophen-2-yl)allyl)carbamate] | 6.00 to 7.00 |
| OCC1(O/N=C/c2sc3c(N[C@@H]4CNC[C@@H]4F)cccc3c2CC(F)(F)F)CCCOC1 (stereo partly drawn) [Example 1-16, (E)-7-(((3R,4S)-4-fluoropyrrolidin-3-yl)amino)-3-(2,2,2-trifluoroethyl)benzo[b]thiophene-2-carbaldehyde O-(3-(hydroxymethyl)tetrahydro-2H-pyran-3-yl) oxime] | < 6.00 |
| OCC1(O/N=C/c2sc3c(N[C@@H]4CNC[C@@H]4F)cccc3c2CC(F)(F)F)CCCCC1 [Example 1-30, (E)-7-(((3R,4S)-4-fluoropyrrolidin-3-yl)amino)-3-(2,2,2-trifluoroethyl)benzo[b]thiophene-2-carbaldehyde O-(1-(hydroxymethyl)cyclohexyl) oxime] | < 6.00 |
| OC(/C=C/c1sc2c(N[C@@H]3CNC[C@@H]3F)cccc2c1CC(F)(F)F)c1cc(Cl)n[nH]1 (stereo partly drawn) [Example 5-3, (E)-1-(3-chloro-1H-pyrazol-5-yl)-3-(7-(((3R,4S)-4-fluoropyrrolidin-3-yl)amino)-3-(2,2,2-trifluoroethyl)benzo[b]thiophen-2-yl)prop-2-en-1-ol] | 6.00 to 7.00 |
| CC(O/N=C/c1sc2c(N[C@@H]3CNC[C@@H]3F)cccc2c1CC(F)(F)F)c1cccnc1 (stereo partly drawn) [Example 2-25, (E)-7-(((3R,4S)-4-fluoropyrrolidin-3-yl)amino)-3-(2,2,2-trifluoroethyl)benzo[b]thiophene-2-carbaldehyde O-(1-(pyridin-3-yl)ethyl) oxime] | 6.00 to 7.00 |
| CN1CC[C@@H](Nc2cccc3c2cc(/C=N/OCC2CC2)n3CC(F)(F)F)[C@@H](F)C1 [Example 2-1, (E)-4-(((3S,4R)-3-fluoro-1-methylpiperidin-4-yl)amino)-1-(2,2,2-trifluoroethyl)-1H-indole-2-carbaldehyde O-cyclopropylmethyl oxime] | < 6.00 |

The remaining lines, values ahead:

| pEC50 | SMILES |
| --- | --- |
| 6.00 to 7.00 | OC(CO/N=C/c1sc2c(N[C@@H]3CCNC[C@@H]3F)cccc2c1CC(F)(F)F)c1ccccc1 (stereo partly drawn) [Example 2-12, (E)-7-(((3S,4R)-3-fluoropiperidin-4-yl)amino)-3-(2,2,2-trifluoroethyl)benzo[b]thiophene-2-carbaldehyde O-(2-hydroxy-2-phenylethyl) oxime] |
| > 7.00 | OC1COCC1O/N=C/c1sc2c(N[C@@H]3CNC[C@@H]3F)cccc2c1CC(F)(F)F (stereo partly drawn) [Example 1-37, (E)-7-(((3R,4S)-4-fluoropyrrolidin-3-yl)amino)-3-(2,2,2-trifluoroethyl)benzo[b]thiophene-2-carbaldehyde O-(4-hydroxytetrahydrofuran-3-yl) oxime] |
| 6.00 to 7.00 | CN1CC[C@@H](Nc2cccc3c(CC(F)(F)F)c(/C=C/CNc4cccnc4)sc23)[C@@H](F)C1 [Example 7-1, N-((E)-3-(7-(((3S,4R)-3-fluoro-1-methylpiperidin-4-yl)amino)-3-(2,2,2-trifluoroethyl)benzo[b]thiophen-2-yl)allyl)pyridin-3-amine] |
| 6.00 to 7.00 | CN1CC[C@@H](Nc2cccc3c(CC(F)(F)F)c(/C=C/CNC(=O)c4cnn(C)c4)sc23)[C@@H](F)C1 [Example 6-2, N-((E)-3-(7-(((3S,4R)-3-fluoro-1-methylpiperidin-4-yl)amino)-3-(2,2,2-trifluoroethyl)benzo[b]thiophen-2-yl)allyl)-1-methyl-1H-pyrazole-4-carboxamide] |
| 6.00 to 7.00 | CN1CC[C@@H](Nc2cccc3c(CC(F)(F)F)c(/C=C/C(O)c4cnn(C)c4)sc23)[C@@H](F)C1 (some centres unmarked) [Example 5-5] |
| 6.00 to 7.00 | CC(O)CO/N=C/c1sc2c(N[C@@H]3CCNC[C@@H]3F)cccc2c1CC(F)(F)F (stereo partly drawn) [Example 2-13, (E)-7-(((3S,4R)-3-fluoropiperidin-4-yl)amino)-3-(2,2,2-trifluoroethyl)benzo[b]thiophene-2-carbaldehyde O-(2-hydroxypropyl) oxime] |
| > 7.00 | F[C@H]1CNC[C@H]1Nc1cccc2c(CC(F)(F)F)c(/C=N/OC3CCOC3)sc12 (stereo partly drawn) [Example 3-1, (E)-7-(((3R,4S)-4-fluoropyrrolidin-3-yl)amino)-3-(2,2,2-trifluoroethyl)benzo[b]thiophene-2-carbaldehyde O-tetrahydrofuran-3-yl oxime] |
| 6.00 to 7.00 | CC(O)(CO/N=C\c1sc2c(N[C@@H]3CNC[C@@H]3F)cccc2c1CC(F)(F)F)c1ccccc1 (stereo partly drawn) [Example 1-22, (Z)-7-(((3R,4S)-4-fluoropyrrolidin-3-yl)amino)-3-(2,2,2-trifluoroethyl)benzo[b]thiophene-2-carbaldehyde O-(2-hydroxy-2-phenylpropyl) oxime] |
| 6.00 to 7.00 | Cn1cnc(CO/N=C/c2sc3c(N[C@@H]4CNC[C@@H]4F)cccc3c2CC(F)(F)F)n1 [Example 3-4, (E)-7-(((3R,4S)-4-fluoropyrrolidin-3-yl)amino)-3-(2,2,2-trifluoroethyl)benzo[b]thiophene-2-carbaldehyde O-((1-methyl-1H-1,2,4-triazol-3-yl)methyl) oxime] |
| 6.00 to 7.00 | CN1CC[C@@H](Nc2cccc3c(CC(F)(F)F)c(/C=C/C(O)c4cnn5ccccc45)sc23)[C@@H](F)C1 (stereo partly drawn) [Example 5-6, (E)-3-(7-(((3S,4R)-3-fluoro-1-methylpiperidin-4-yl)amino)-3-(2,2,2-trifluoroethyl)benzo[b]thiophen-2-yl)-1-(pyrazolo[1,5-a]pyridin-3-yl)prop-2-en-1-ol] |
| 6.00 to 7.00 | CN1CC[C@@H](Nc2cccc3c2cc(/C=N/OCc2nc4ccccc4[nH]2)n3CC(F)(F)F)[C@@H](F)C1 [Example 2-9, (E)-4-(((3S,4R)-3-fluoro-1-methylpiperidin-4-yl)amino)-1-(2,2,2-trifluoroethyl)-1H-indole-2-carbaldehyde O-((1H-benzo[d]imidazol-2-yl)methyl)oxime] |
| > 7.00 | CN1CC[C@@H](Nc2cccc3c2cc(-c2noc(CNC(=O)c4cnn(C(C)(C)C)c4)n2)n3CC(F)(F)F)[C@@H](F)C1 [Reference Compound 1, reference compound] |
| 6.00 to 7.00 | CN1CC[C@@H](Nc2cccc3c(CC(F)(F)F)c(/C=N\OCc4cccc(=O)n4C)sc23)[C@@H](F)C1 [Example 2-30, (Z)-7-(((3S,4R)-3-fluoro-1-methylpiperidin-4-yl)amino)-3-(2,2,2-trifluoroethyl)benzo[b]thiophene-2-carbaldehyde O-((1-methyl-6-oxo-1,6-dihydropyridin-2-yl)methyl) oxime] |
| 6.00 to 7.00 | F[C@H]1CNCC[C@H]1Nc1cccc2c(CC(F)(F)F)c(/C=N/OCC3CC3)sc12 [Example 2-10, (E)-7-(((3S,4R)-3-fluoropiperidin-4-yl)amino)-3-(2,2,2-trifluoroethyl)benzo[b]thiophene-2-carbaldehyde O-cyclopropylmethyl oxime] |
| > 7.00 | F[C@H]1CNC[C@H]1Nc1cccc2c(CC(F)(F)F)c(/C=N/OCc3cccnc3)sc12 [Example 3-2, (E)-7-(((3R,4S)-4-fluoropyrrolidin-3-yl)amino)-3-(2,2,2-trifluoroethyl)benzo[b]thiophene-2-carbaldehyde O-pyridin-3-ylmethyl oxime] |
| 6.00 to 7.00 | OC1(CO/N=C/c2sc3c(N[C@@H]4CNC[C@@H]4F)cccc3c2CC(F)(F)F)CCNC1 (stereo partly drawn) [Example 1-12, (E)-7-(((3R,4S)-4-fluoropyrrolidin-3-yl)amino)-3-(2,2,2-trifluoroethyl)benzo[b]thiophene-2-carbaldehyde O-((3-hydroxypyrrolidin-3-yl)methyl) oxime] |
